# Experimental data published in patent publication US20080113938A1, “ACCELERATOR FOR MINERAL ABSORPTION AND USE THEREOF” (KABUSHIKI KAISHA HAYASHIBARA SEIBUTSU KAGAKU KENKYUJO, priority 2003, published 2008).
# Marks after values point to notes of the source that are not given here.
# Tested on: absorption of calcium, magnesium, phosphorus and iron in alimentary canal
# Assay: Mineral amounts and absorption percentages in alimentary canal contents and excrement of rats
# Assay type: in vivo, Wister rats
# From the text: Forty of Wister rats weighing 110 to 120 g (five-weeks aged male, commercialized by Charles River Japan Inc., Yokohama, Japan) were bred with a feed containing ingredients (%) shown in Table 1 for one week in order to be familiarized. The familiarized rats were randomly divided into four groups with ten rats each. Each group was experimentally bred for eight weeks with either a feed without cyclic tetrasaccharide shown in Table 1 (hereinafter, it is called as “basic feed”), or another feed of basic feed supplemented with 1%, 2% or 5% on a dry solid basis, of cyclic tetrasaccharide in a crystalline anhydrous powder form with a purity of 99.5%, prepared in the following Example A-3. These basic feed and three kinds of feeds with cyclic tetrasaccharide were prepared to contain 44.75% of the total amount of cyclic tetrasaccharide and corn starch in each feed. From one week before the end of the breeding test, in order to determine the metabolism of calcium, magnesium, iron, sodium, potassium and phosphorus (hereinafter, may be called “minerals” in all), rats in the all groups were fed with the four types of feeds supplemented with 0.5% of chromium oxide as a non-absorbed marker for the minerals. The rats were bred at 25° C. in a manner of freely allowing to take feeds and water under a condition of 12 hours regular interval between of light and shade. After completion of experimental breeding, all rats were individually weighed to calculate the average of weight and further calculate the rate of increased weight for each group.
# Two days before the end of the breeding test, rats were placed into a gauge for measuring metabolism to collect their excrement in two days. The resulting excrement was subjected to the measurement of the contents of cyclic tetrasaccharide, each mineral, and chromium. After the breeding test, the rats were anatomized in an anesthetized condition to take out their alimentary canals including jejunum, intestinum ileum, appendix and colon/rectum. After the resulting alimentary canals were weighed, their contents were also weighed and subjected to the measurement of the amount of cyclic tetrasaccharide, minerals and chromium. The rats, which had been taken out their alimentary canals, were dislocated at their cervical vertebrae and taken out their femurs from right legs. The resulting femurs were subjected to the measurement of the amount of ashes, calcium, magnesium and phosphorus. The following(s) explain the methods of quantitative analysis of cyclic tetrasaccharide and the methods of measurement of minerals and chromium.
# Two grams of a feed was preciously weighed in a porcelain crucible, heated to carbonize, and heated at 600° C. to incinerate. After weighed, the resulting test samples were admixed with hydrochloric acid in a precious analysis grade (concentration of 20%, commercialized by Wako Pure Chemicals, Co., Ltd., Osaka, Japan) to give a final concentration of 1%. They were subjected to atomic absorption spectrometry (“Zeeman5100™”, commercialized by PerkinElmer); in the case of measurement of chromium, they were subjected to a flameless type one. In the case of measurement of phosphorus, they were subjected to usual molybdenum blue absorptiometry. On the other hand, 0.1 g of each of the contents of jejunum, intestinum ileum, appendix, colon/rectum, and excrement was subjected to wet-type incineration to prepare test samples similarly as in the above case of feed, and the test samples were quantified. The right femurs taken out from the anatomized rats were dried at 105° C. for 15 hours and measured as a dry weight. The resulting dried femurs were precisely weighed in a porcelain crucible, and incinerated similarly as in the case of the feed. The resultants were weighed and quantified for calcium, magnesium and phosphorus.
# [1] = feed supplemented with 1% cyclic tetrasaccharide
# [2] = feed supplemented with 2% cyclic tetrasaccharide
# [3] = feed supplemented with 5% cyclic tetrasaccharide
structure (smiles),measurement,setting,value
"OC[C@H]1O[C@@H]2OC[C@H]3O[C@H](O[C@@H]4[C@@H](O)[C@@H](OC[C@H]5O[C@H](O[C@H]([C@H]2O)[C@@H]1O)[C@H](O)[C@@H](O)[C@@H]5O)O[C@H](CO)[C@H]4O)[C@H](O)[C@@H](O)[C@@H]3O [cyclic tetrasaccharide, cyclo{>6)-α-D-glucopyranosyl-(1>3)-α-D-glucopyranosyl-(1>6)-α-D-glucopyranosyl-(1>3)-α-D-glucopyranosyl-(1>}]","absorption rates of calcium, magnesium, phosphorus and iron in intestinum ileum and lower alimentary canal","against basic feed, 1%, 2%, 5% feeds",significantly increased in a dose-dependent manner
same,"Absorption percentage of calcium, appendix",[1],(83) %
same,"Absorption percentage of calcium, colon/rectum",[1],(86) %
same,"Absorption percentage of calcium, excrement",[1],(88) %
same,"Absorption percentage of calcium, intestinum ileum",[1],(79) %
same,"Absorption percentage of iron, appendix",[1],(74) %
same,"Absorption percentage of iron, colon/rectum",[1],(80) %
same,"Absorption percentage of iron, excrement",[1],(85) %
same,"Absorption percentage of iron, intestinum ileum",[1],(67) %
same,"Absorption percentage of magnesium, appendix",[1],(84) %
same,"Absorption percentage of magnesium, colon/rectum",[1],(86) %
same,"Absorption percentage of magnesium, excrement",[1],(88) %
same,"Absorption percentage of magnesium, intestinum ileum",[1],(80) %
same,"Absorption percentage of phosphorus, appendix",[1],(88) %
same,"Absorption percentage of phosphorus, colon/rectum",[1],(92) %
same,"Absorption percentage of phosphorus, excrement",[1],(95) %
same,"Absorption percentage of phosphorus, intestinum ileum",[1],(84) %
same,"Amount of Phosphorus, content of appendix",[1],5.39 * mg/g
same,"Amount of Phosphorus, content of colon/rectum",[1],5.18 * mg/g
same,"Amount of Phosphorus, content of intestinum ileum",[1],3.45 * mg/g
same,"Amount of Phosphorus, excrement",[1],17.74 * mg/g
same,"Amount of calcium, content of appendix",[1],10.56 * mg/g
same,"Amount of calcium, content of colon/rectum",[1],9.83 * mg/g
same,"Amount of calcium, content of intestinum ileum",[1],6.02 * mg/g
same,"Amount of calcium, excrement",[1],54.29 * mg/g
same,"Amount of iron, content of appendix",[1],0.16 * mg/g
same,"Amount of iron, content of colon/rectum",[1],0.14 * mg/g
same,"Amount of iron, content of intestinum ileum",[1],0.10 * mg/g
same,"Amount of iron, excrement",[1],0.71 * mg/g
same,"Amount of magnesium, content of appendix",[1],2.24 * mg/g
same,"Amount of magnesium, content of colon/rectum",[1],2.17 * mg/g
same,"Amount of magnesium, content of intestinum ileum",[1],1.30 * mg/g
same,"Amount of magnesium, excrement",[1],12.06 * mg/g
same,"Absorption percentage of calcium, appendix",[2],(88) %
same,"Absorption percentage of calcium, colon/rectum",[2],(90) %
same,"Absorption percentage of calcium, excrement",[2],(92) %
same,"Absorption percentage of calcium, intestinum ileum",[2],(84) %
same,"Absorption percentage of iron, appendix",[2],(77) %
same,"Absorption percentage of iron, colon/rectum",[2],(83) %
same,"Absorption percentage of iron, excrement",[2],(88) %
same,"Absorption percentage of iron, intestinum ileum",[2],(67) %
same,"Absorption percentage of magnesium, appendix",[2],(86) %
same,"Absorption percentage of magnesium, colon/rectum",[2],(88) %
same,"Absorption percentage of magnesium, excrement",[2],(90) %
same,"Absorption percentage of magnesium, intestinum ileum",[2],(80) %
same,"Absorption percentage of phosphorus, appendix",[2],(92) %
same,"Absorption percentage of phosphorus, colon/rectum",[2],(94) %
same,"Absorption percentage of phosphorus, excrement",[2],(97) %
same,"Absorption percentage of phosphorus, intestinum ileum",[2],(87) %
same,"Amount of Phosphorus, content of appendix",[2],5.35 * mg/g
same,"Amount of Phosphorus, content of colon/rectum",[2],4.10 * mg/g
same,"Amount of Phosphorus, content of intestinum ileum",[2],4.17 * mg/g
same,"Amount of Phosphorus, excrement",[2],10.27 * mg/g
same,"Amount of calcium, content of appendix",[2],8.98 * mg/g
same,"Amount of calcium, content of colon/rectum",[2],7.45 * mg/g
same,"Amount of calcium, content of intestinum ileum",[2],5.61 * mg/g
same,"Amount of calcium, excrement",[2],28.62 * mg/g
same,"Amount of iron, content of appendix",[2],0.18 * mg/g
same,"Amount of iron, content of colon/rectum",[2],0.14 * mg/g
same,"Amount of iron, content of intestinum ileum",[2],0.12 * mg/g
same,"Amount of iron, excrement",[2],0.49 * mg/g
same,"Amount of magnesium, content of appendix",[2],2.40 * mg/g
same,"Amount of magnesium, content of colon/rectum",[2],2.09 * mg/g
same,"Amount of magnesium, content of intestinum ileum",[2],1.61 * mg/g
same,"Amount of magnesium, excrement",[2],9.21 * mg/g
same,"Absorption percentage of calcium, appendix",[3],(93) %
same,"Absorption percentage of calcium, colon/rectum",[3],(94) %
same,"Absorption percentage of calcium, excrement",[3],(94) %
same,"Absorption percentage of calcium, intestinum ileum",[3],(89) %
same,"Absorption percentage of iron, appendix",[3],(78) %
same,"Absorption percentage of iron, colon/rectum",[3],(84) %
same,"Absorption percentage of iron, excrement",[3],(89) %
same,"Absorption percentage of iron, intestinum ileum",[3],(69) %
same,"Absorption percentage of magnesium, appendix",[3],(88) %
same,"Absorption percentage of magnesium, colon/rectum",[3],(91) %
same,"Absorption percentage of magnesium, excrement",[3],(93) %
same,"Absorption percentage of magnesium, intestinum ileum",[3],(84) %
same,"Absorption percentage of phosphorus, appendix",[3],(93) %
same,"Absorption percentage of phosphorus, colon/rectum",[3],(94) %
same,"Absorption percentage of phosphorus, excrement",[3],(97) %
same,"Absorption percentage of phosphorus, intestinum ileum",[3],(87) %
same,"Amount of Phosphorus, content of appendix",[3],3.43 * mg/g
same,"Amount of Phosphorus, content of colon/rectum",[3],3.06 * mg/g
same,"Amount of Phosphorus, content of intestinum ileum",[3],2.84 * mg/g
same,"Amount of Phosphorus, excrement",[3],8.98 * mg/g
same,"Amount of calcium, content of appendix",[3],4.99 * mg/g
same,"Amount of calcium, content of colon/rectum",[3],5.00 * mg/g
same,"Amount of calcium, content of intestinum ileum",[3],3.48 * mg/g
same,"Amount of calcium, excrement",[3],26.47 * mg/g
same,"Amount of iron, content of appendix",[3],0.19 * mg/g
same,"Amount of iron, content of colon/rectum",[3],0.13 * mg/g
same,"Amount of iron, content of intestinum ileum",[3],0.10 * mg/g
same,"Amount of iron, excrement",[3],0.66 * mg/g
same,"Amount of magnesium, content of appendix",[3],2.03 * mg/g
same,"Amount of magnesium, content of colon/rectum",[3],1.55 * mg/g
same,"Amount of magnesium, content of intestinum ileum",[3],1.04 * mg/g
same,"Amount of magnesium, excrement",[3],8.37 * mg/g
